Laboratory results published in patent US20240409886A1, “CULTURE MEDIUM COMPRISING DIPEPTIDES” (Evonik Operations GmbH, priority 2017, published 2024).
Residues, ends and D or L forms follow the SMILES beside them.

Tests used:
[1] = system: antibody-producing Chinese Hamster Ovary (CHO) cell (subclone DG44); test: product titer (antibody concentration at the end of the cultivation); assay type: cell-based; conditions: for rel. product titer [-]: end of cultivation, t=18h, relative units
Protocol: The effect of the Gln-Asn dipeptide on an antibody-producing Chinese Hamster Ovary (CHO) cell (subclone DG44; Life Technologies Corporation, Carlsbad, USA) was investigated using one-factor-at-a-time (OFAT) analysis.
The analysis was based on a comparison of the viable cell density and cell viability in a series of cell cultures, which were conducted at substantially identical culturing conditions, however, with increasing amounts of the Gln-Asn dipeptide in the medium. In order to keep the total amounts of Asn and Gln units (molar basis) in the various culture media constant, the molar concentration of free glutamine and free asparagine was reduced in accordance with the molar amount of the dipeptide added. A series of culture media having increasing amounts of the Gln-Asn dipeptide was prepared by mixing varying amounts of a Base Medium (comprising free Asn and Gln) and a Test Medium (comprising Asn-Gln dipeptide). A commercially available defined cell culture medium (TC-42, TeutoCell AG, Bielefeld, Germany) served as the Base Medium. (Any other suitable cell culture medium could be used.) A Test Medium (TC-42-EVO) was prepared so as to have identical nutrient concentrations compared to the Base Medium, however, instead of free Asn the Test Medium contained an equimolar amount (5.4 mM) of Gin-Asn dipeptide. Furthermore, the free Gln concentration in the Test Medium was set to a value such that the total concentration of Gln units in the Test Medium (i.e., free Gln and dipeptide-Gln) matched the concentration of free Gln in the Base Medium. All other nutrient concentrations in the Test Medium were the same as in the Base Medium. The Base Medium contained 1461.5 mg/l free Gln and 612 mg/l free Asn.
Six cell cultivations were then conducted with media containing varying amounts of the Test Medium and the Base Medium in the following proportions:
All media were set to pH 8.3. Salinity of the culture media was set to 285 mOsmol/kg with NaCl. All cultivations were conducted in on a rotary shaker under identical culture conditions (temperature, humidity, rpm, CO2, etc.), using standard cell culture methods. Three passages of a cell culture are conducted and viable cell density (VCD; 10^6 viable cells/ml) and cell viability (%) was followed in duplicate determinations, using […] determination.
Generally, an increased product titer is observed in all cultures including the Asn-containing dipeptide. In cultivations #2 and #3 (80% and 25% of the Asn present in form of the dipeptide, respectively) the product titer is more than 1.4-fold increased.

[2] = system: antibody-producing Chinese Hamster Ovary (CHO) cell (subclone DG44)
Protocol: The analysis was based on a comparison of the viable cell density and cell viability in a series of cell cultures, which were conducted at substantially identical culturing conditions, however, with increasing amounts of the Gln-Asn dipeptide in the medium. In order to keep the total amounts of Asn and Gln units (molar basis) in the various culture media constant, the molar concentration of free glutamine and free asparagine was reduced in accordance with the molar amount of the dipeptide added. A series of culture media having increasing amounts of the Gln-Asn dipeptide was prepared by mixing varying amounts of a Base Medium (comprising free Asn and Gln) and a Test Medium (comprising Asn-Gln dipeptide). A commercially available defined cell culture medium (TC-42, TeutoCell AG, Bielefeld, Germany) served as the Base Medium. […] Furthermore, the free Gln concentration in the Test Medium was set to a value such that the total concentration of Gln units in the Test Medium (i.e., free Gln and dipeptide-Gln) matched the concentration of free Gln in the Base Medium. All other nutrient concentrations in the Test Medium were the same as in the Base Medium. […]

## NC(=O)CC[C@H](N)C(=O)N[C@@H](CC(N)=O)C(=O)O [Gln-Asn, L-glutaminyl-L-asparagine] (H-Gln-Asn-OH)
[1]; 0.3 mM dipeptide (#5)
  rel. product titer [-]: 1.01
[1]; 0.8 mM dipeptide (#4)
  rel. product titer [-]: 1.11
[1]; 1.4 mM dipeptide (#3)
  rel. product titer [-]: 1.42
[1]; 4.3 mM dipeptide (#2)
  rel. product titer [-]: 1.41
[1]; 5.4 mM dipeptide (#1)
  rel. product titer [-]: 1.19
[1]; cultivation #2, 80% of the Asn present in form of the dipeptide
  product titer increase: more than 1.4 fold
[1]; cultivation #3, 25% of the Asn present in form of the dipeptide
  product titer increase: more than 1.4 fold
[1]; cultivations #1-#4, dipeptide 0.8 mM to 5.4 mM
  product titer: Significantly improved
[2]; high concentrations of the dipeptide (cultivations #1, #2, #3)
  cell viability at day 18: relatively high viability
[2]; lower concentration of the dipeptide (cultivations #4, #5)
  cell viability at the end of experiment: significantly reduced cell viability
